{
  "source": "patent US20180280326A1",
  "about": "“MEDICAMENT FOR PREVENTING OR INHIBITING ACUTE KIDNEY INJURY” (National Cerebral and Cardiovascular Center, priority 2015, published 2018)",
  "key": {"[1]": {"test_system": "AT2 receptor deficient mice, CDDP induced acute kidney injury", "test": "CDDP induced acute kidney injury-inhibiting effects on AT2 receptor deficient mice", "format": "in vivo", "settings": "male AT2 receptor deficient mice; CDDP 15 mg/kg i.p.; oral 30 mg/kg per day from 3 days before; 72 hours after CDDP", "experimental": "To 8- to 12-week-old male AT2 receptor deficient mice (n=3 or 5 to 7), 15 mg/kg of cisplatin (CDDP, disease group) or 30 mL/kg of phosphate buffered saline (PBS, normal group) was intraperitoneally administered.\nA 0.2 mg/mL aqueous solution of Compound C in 0.5% carboxymethylcellulose (CMC) was prepared and orally administered so that Compound C was at a dose of 30 mg/kg per day from 3 days before the start of the experiment, and the mice were subjected to the experiment. To the control group, the same dose of 0.5% CMC aqueous solution was administered.\nAt 72 hours after CDDP administration, incision in the abdomen was performed under sevoflurane anesthesia, and the whole blood was collected from the abdominal great vein using a syringe. The blood was centrifuged, and the supernatant (serum) was collected. The serum was stored at −20 to −80° C. Immediately before dissection, spot urine was collected from each mouse.\nUsing the measurement kits, urinary albumin (Alb) and urinary creatinine (Cr) were measured for the calculation of the urinary Alb/Cr ratio, and also blood urea nitrogen (BUN) was measured. The results are shown in FIG. 3 (urinary Alb/Cr ratio) and FIG. 4 (BUN)."}, "human renal cells": {"test_system": "human renal cells", "settings": "LPS as an endotoxin acting on human renal cells; Non Patent Literature 6; cited from earlier work"}},
  "data": [
    {"smiles": "CCN(CC)C(=O)[C@H](Cc1ccc(NC(=O)c2ccccc2)cc1)C(=O)NS(=O)(=O)c1ccc2ccccc2c1", "note": "[Compound C, (2S)-2-[4-(benzoylamino)benzyl]-N,N-diethyl-N′-(2-naphthylsulfonyl)malonamide]", "values": [
      {"measurement": "inhibition of acute kidney injury caused by CDDP (urinary Alb/Cr ratio, FIG. 3; BUN, FIG. 4)", "setting": "[1]", "result": "not effective"}
    ]},
    {"smiles": "CCCCOC(=O)NS(=O)(=O)c1sc(CC(C)C)cc1-c1ccc(Cn2ccnc2)cc1", "note": "[Example C21]", "values": [
      {"measurement": "level of IL-6", "setting": "human renal cells", "result": "lowered"},
      {"measurement": "level of TNF-α", "setting": "human renal cells", "result": "lowered"}
    ]}
  ]
}
